Earlier results in patent US20050124598A1, “Antibiotic compounds” (priority 2001, published 2005).

Biological target: PBP2a (Staphylococcus aureus, UniProt P07944)
Settings: reported β-lactam inhibitors, literature values

PBP2a, sequence (P07944 whole entry): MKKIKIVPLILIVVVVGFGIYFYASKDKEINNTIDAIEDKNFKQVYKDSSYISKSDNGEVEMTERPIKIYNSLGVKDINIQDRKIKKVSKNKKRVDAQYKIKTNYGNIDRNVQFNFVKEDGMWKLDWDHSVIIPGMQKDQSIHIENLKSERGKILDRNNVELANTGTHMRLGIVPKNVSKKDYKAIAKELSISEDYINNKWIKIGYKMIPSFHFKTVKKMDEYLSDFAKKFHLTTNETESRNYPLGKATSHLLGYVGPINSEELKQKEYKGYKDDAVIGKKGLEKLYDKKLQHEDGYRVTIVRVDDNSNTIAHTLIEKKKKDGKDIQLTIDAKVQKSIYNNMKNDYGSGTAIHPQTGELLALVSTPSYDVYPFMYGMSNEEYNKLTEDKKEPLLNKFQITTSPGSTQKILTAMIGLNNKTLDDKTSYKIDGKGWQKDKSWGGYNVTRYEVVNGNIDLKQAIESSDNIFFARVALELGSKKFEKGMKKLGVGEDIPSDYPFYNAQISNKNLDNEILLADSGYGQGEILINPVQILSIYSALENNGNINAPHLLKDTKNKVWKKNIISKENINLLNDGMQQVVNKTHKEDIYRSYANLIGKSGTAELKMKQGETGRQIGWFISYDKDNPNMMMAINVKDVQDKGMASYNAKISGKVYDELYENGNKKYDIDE

SMILES | IC50 for PBP2a [µg/mL]
NC(=O)C[n+]1ccc(S/C=C/C2=C(C(=O)[O-])N3C(=O)C(NC(=O)/C(=N\O)c4csc(N)n4)C3SC2)cc1 (centres unmarked) [TOC-39] | 0.58
NCCSCc1cnccc1SC1=C(C(=O)O)N2C(=O)[C@@H](NC(=O)/C(=N\O)c3nc(N)sc3Cl)[C@H]2SC1 [MC-02479] | 0.5
